According to patent publication US20260274891A1, “¿ OPIOID RECEPTOR AGONIST AND USE THEREOF” (CHENGDU AODA BIOTECHNOLOGY CO., LTD., priority 2023, published 2026):
Square brackets hold non-standard residues; d marks the D form. Side chains are listed from the residue outwards. Peptide text beside a SMILES is read from it. * marks the point of attachment. X21 = NCCCC[C@H](NC(=O)[C@H](CCCCN)NC(=O)C1(N)CCN(*)CC1)C(N)=O; X28 = NCCCC[C@H](NC(=O)[C@H](CCCCN)NC(=O)C1(N)CCN(*)CC1)C(=O)O; X12 = CCOc1ccc(C[C@@H](NC(=O)[C@H](N)Cc2ccccc2)C(=O)*)cc1; X5 = NCCCC[C@@H](NC(=O)CNC(=O)C1(N)CCN(*)CC1)C(N)=O; Piperidin1yl(4-NH2,4-COOH) = NC1(C(=O)O)CCN(*)CC1; X10 = NCCCC[C@@H](NC(=O)C1(N)CCN(*)CC1)C(=O)O; X1 = NCCCC[C@@H](NC(=O)C1(N)CCN(*)CC1)C(N)=O; X4 = NCCCC[C@H](NC(=O)C1(N)CCN(*)CC1)C(=O)O; dAla(cPr) = N[C@H](CC1CC1)C(=O)O; Trifluoroethyl = FC(F)(F)C*; Api = NC1(C(=O)O)CCNCC1; iPr = CC(C)*

Target: T1, human κ opioid receptor (OPRK1) (Homo sapiens, UniProt P41145)
T1 construct: expressed in transfected cells; host or cells: CHO-K1
Experiment: Determination of activities of κ receptor agonists: inhibition of forskolin-stimulated cAMP release (HTRF) in stably transfected CHO-K1 cells
Format: cell-based
Details: for Relative Activity %: relative to Difelikefalin = 100.0
Excerpt: Gi-coupled human κ opioid receptor (OPRK1), upon stimulation with its specific opioid receptor agonists, can inhibit the intracellular adenylate cyclase pathway, and decrease cAMP levels. Forskolin can stimulate cAMP release in cell lines highly expressing opioid receptors. By stimulating cell lines stably transfected with opioid receptors, the inhibitory effect of a test compound on forskolin-stimulated cAMP release can be measured to determine the activity of the compound. The relative light units (RLU) from the cells after stimulation with different doses were measured via the homogeneous time-resolved fluorescence technique (HTRF), and the EC50 value of the agonist was subsequently calculated. This activity determination method is a currently commonly used method for determining the activities of opioid receptor agonists at home and abroad.
A CHO-K1 cell line stably expressing opioid receptors was used. Stably transfected cells were stimulated with various concentrations of agonists (under the stimulation of a certain concentration of forskolin). The relative light units from the cells after stimulation with different doses were measured, from which the EC50 value of the agonist was subsequently obtained by calculation.

T1 sequence (P41145 whole entry): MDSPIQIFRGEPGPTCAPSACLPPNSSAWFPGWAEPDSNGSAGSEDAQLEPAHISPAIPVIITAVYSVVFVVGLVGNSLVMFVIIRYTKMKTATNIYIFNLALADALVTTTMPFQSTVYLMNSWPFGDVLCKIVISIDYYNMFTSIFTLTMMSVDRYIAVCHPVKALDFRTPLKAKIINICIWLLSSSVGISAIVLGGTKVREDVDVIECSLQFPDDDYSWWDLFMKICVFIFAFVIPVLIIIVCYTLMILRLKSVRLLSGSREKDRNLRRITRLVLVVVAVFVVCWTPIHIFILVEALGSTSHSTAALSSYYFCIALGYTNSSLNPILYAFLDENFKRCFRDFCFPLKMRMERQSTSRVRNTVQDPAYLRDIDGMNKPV

SMILES: CCOc1ccc(C[C@@H](NC(=O)[C@H](N)Cc2ccccc2)C(=O)N[C@H](CC(C)C)C(=O)N[C@H](CCCCN)C(=O)N2CCC(N)(C(=O)N[C@H](CCCCN)C(=O)N[C@H](CCCCN)C(=O)N[C@H](CCCCN)C(=O)N[C@H](CCCCN)C(=O)N[C@H](CCCCN)C(N)=O)CC2)cc1 [Compound 23, D-Phe-D-Tyr(Et)-D-Leu-D-Lys-4-aminopiperidine-4-carboxamide-D-Lys-D-Lys-D-Lys-D-Lys -D-Lys-NH2] (H-[Api]([dK-dL-X12])[dK][dK][dK][dK][dK]-NH2; N-terminus assumed)
- EC50: 0.0554 nM
- Relative Activity %: 1096.0%

SMILES: CC(C)C[C@@H](NC(=O)[C@@H](Cc1ccc(OC(C)C)cc1)NC(=O)[C@H](N)Cc1ccccc1)C(=O)N[C@H](CCCCN)C(=O)N1CCC(N)(C(=O)N[C@@H](CCCCN)C(=O)O)CC1 [Compound 100, D-Phe-D-Tyr(Ipr)-D-Leu-D-Lys-4-aminopiperidine-4-carboxamide-Lys-OH] (H-[dF][dY](iPr)[dL][dK]-X4; N-terminus assumed)
- EC50: 0.0716 nM
- Relative Activity %: 848.0%

SMILES: CCOc1ccc(C[C@@H](NC(=O)[C@H](N)Cc2ccccc2)C(=O)N[C@H](CC2CC2)C(=O)N[C@H](CCCCN)C(=O)N2CCC(N)(C(=O)N[C@H](CCCCN)C(N)=O)CC2)cc1 [Compound 71, D-Phe-D-Tyr(Et)-D-cyclopropylalanine-D-Lys-4-aminopiperidine-4-carboxamide-D-Lys-NH2] (H-[dF][dY](Et)[dAla(cPr)][dK]-X1; N-terminus assumed)
- EC50: 0.041 nM
- Relative Activity %: 1481.0%

SMILES: CC(C)C[C@@H](NC(=O)[C@@H](Cc1ccc(OC(C)C)cc1)NC(=O)[C@H](N)Cc1ccccc1)C(=O)N[C@H](CCCCN)C(=O)N1CCC(N)(C(=O)N[C@H](CCCCN)C(=O)O)CC1 [Compound 102, D-Phe-D-Tyr(Ipr)-D-Leu-D-Lys-4-aminopiperidine-4-carboxamide-D-Lys-OH] (H-[dF][dY](iPr)[dL][dK]-X10; N-terminus assumed)
- EC50: 0.073 nM
- Relative Activity %: 831.8%

SMILES: CC(C)C[C@@H](NC(=O)[C@@H](Cc1ccc(Cl)cc1)NC(=O)[C@H](N)Cc1ccccc1)C(=O)N[C@H](CCCCN)C(=O)N1CCC(N)(C(=O)N[C@@H](CCCCN)C(=O)O)CC1 [Compound 112, D-Phe-D-Phe(4-C1)-D-Leu-D-Lys-4-aminopiperidine-4-carboxamide-Lys-OH]
- EC50: 0.0508 nM
- Relative Activity %: 1195.3%

SMILES: CC(C)C[C@@H](NC(=O)[C@@H](Cc1ccc(I)cc1)NC(=O)[C@H](N)Cc1ccccc1)C(=O)N[C@H](CCCCN)C(=O)N1CCC(N)(C(=O)N[C@H](CCCCN)C(N)=O)CC1 [Compound 125, D-Phe-D-Phe(4-I)-D-Leu-D-Lys-4-aminopiperidine-4-carboxamide-D-Lys-NH2]
- EC50: 0.055 nM
- Relative Activity %: 1104.0%

SMILES: CC(C)C[C@@H](NC(=O)[C@@H](Cc1ccc(OCC(F)(F)F)cc1)NC(=O)[C@H](N)Cc1ccccc1)C(=O)N[C@H](CCCCN)C(=O)N1CCC(N)(C(=O)N[C@H](CCCCN)C(N)=O)CC1 [Compound 95, D-Phe-D-Tyr(CH2CF3)-D-Leu-D-Lys-4-aminopiperidine-4-carboxamide-D-Lys-NH2] (H-[dF][dY](Trifluoroethyl)[dL][dK]-X1; N-terminus assumed)
- EC50: 0.0505 nM
- Relative Activity %: 1202.4%

SMILES: COc1ccc(C[C@@H](NC(=O)[C@H](N)Cc2ccccc2)C(=O)N[C@H](CC(C)C)C(=O)N[C@H](CCCCN)C(=O)N2CCC(N)(C(=O)O)CC2)cc1 [Compound 86, D-Phe-D-Tyr(Me)-D-Leu-D-Lys-4-aminopiperidine-4-carboxamide-OH] (H-[dF][dY](Me)[dL][dK]-{Piperidin1yl(4-NH2,4-COOH)}; N-terminus assumed)
- EC50: 0.121 nM
- Relative Activity %: 501.0%

SMILES: CCOc1ccc(C[C@@H](NC(=O)[C@H](N)Cc2ccccc2)C(=O)N[C@H](CC(C)C)C(=O)N[C@H](CCCCN)C(=O)N2CCC(N)(C(=O)N[C@@H](CCCCN)C(=O)N[C@@H](CCCCN)C(N)=O)CC2)cc1 [Compound 5, D-Phe-D-Tyr(Et)-D-Leu-D-Lys-4-aminopiperidine-4-carboxamide-Lys-Lys-NH2] (H-[dF][dY](Et)[dL][dK]-X21; N-terminus assumed)
- EC50: 0.041 nM
- Relative Activity %: 1481.0%

SMILES: CCOc1ccc(C[C@@H](NC(=O)[C@H](N)Cc2ccccc2)C(=O)N[C@H](CC(C)C)C(=O)N[C@H](CCCCN)C(=O)N2CCC(N)(C(=O)NCC(=O)N[C@H](CCCCN)C(N)=O)CC2)cc1 [Compound 49, D-Phe-D-Tyr(Et)-D-Leu-D-Lys-4-aminopiperidine-4-carboxamide-Gly-D-Lys-NH2] (H-[dF][dY](Et)[dL][dK]-X5; N-terminus assumed)
- EC50: 0.0445 nM
- Relative Activity %: 1364.5%

SMILES: CCOc1ccc(C[C@@H](NC(=O)[C@H](N)Cc2ccccc2)C(=O)N[C@H](CC(C)C)C(=O)N[C@H](CCCCN)C(=O)N2CCC(N)(C(=O)N[C@@H](CCCCN)C(=O)N[C@@H](CCCCN)C(=O)O)CC2)cc1 [Compound 6, D-Phe-D-Tyr(Et)-D-Leu-D-Lys-4-aminopiperidine-4-carboxamide-Lys-Lys-OH] (H-[dF][dY](Et)[dL][dK]-X28; N-terminus assumed)
- EC50: 0.0402 nM
- Relative Activity %: 1510.4%

SMILES: CC(C)C[C@@H](NC(=O)[C@@H](Cc1ccc(F)cc1)NC(=O)[C@H](N)Cc1ccccc1)C(=O)N[C@H](CCCCN)C(=O)N1CCC(N)(C(=O)O)CC1 [Compound 104, D-Phe-D-Phe(4-F)-D-Leu-D-Lys-4-aminopiperidine-4-carboxamide-OH]
- EC50: 0.215 nM
- Relative Activity %: 281.9%

SMILES: CCOc1ccc(C[C@@H](NC(=O)[C@H](N)Cc2ccccc2)C(=O)N[C@H](CC(C)C)C(=O)N[C@H](CCCCN)C(=O)N2CCC(N)(C(=O)N[C@@H](CCCCN)C(=O)N[C@@H](CCCCN)C(=O)N[C@@H](CCCCN)C(=O)N[C@@H](CCCCN)C(=O)O)CC2)cc1 [Compound 10, D-Phe-D-Tyr(Et)-D-Leu-D-Lys-4-aminopiperidine-4-carboxamide-Lys-Lys-Lys-Lys-OH] (H-[Api]([dK-dL-X12])KKKK-OH; N-terminus assumed)
- EC50: 0.0463 nM
- Relative Activity %: 1311.4%

SMILES: CC(C)C[C@@H](NC(=O)[C@@H](Cc1ccc(OCC(F)(F)F)cc1)NC(=O)[C@H](N)Cc1ccccc1)C(=O)N[C@H](CCCCN)C(=O)N1CCC(N)(C(=O)N[C@H](CCCCN)C(=O)O)CC1 [Compound 96, D-Phe-D-Tyr(CH2CF3)-D-Leu-D-Lys-4-aminopiperidine-4-carboxamide-D-Lys-OH] (H-[dF][dY](Trifluoroethyl)[dL][dK]-X10; N-terminus assumed)
- EC50: 0.0494 nM
- Relative Activity %: 1229.1%

SMILES: CCOc1ccc(C[C@@H](NC(=O)[C@H](N)Cc2ccccc2)C(=O)N[C@H](CC(C)C)C(=O)N[C@H](CCCCN)C(=O)N2CCC(N)(C(=O)NCC(=O)NCC(=O)NCC(=O)N[C@H](CCCCN)C(=O)O)CC2)cc1 [Compound 58, D-Phe-D-Tyr(Et)-D-Leu-D-Lys-4-aminopiperidine-4-carboxamide-Gly-Gly-Gly-D-Lys-OH] (H-[Api]([dK-dL-X12])GGG[dK]-OH; N-terminus assumed)
- EC50: 0.0515 nM
- Relative Activity %: 1179.0%

SMILES: CC(C)C[C@@H](NC(=O)[C@@H](Cc1ccc(Br)cc1)NC(=O)[C@H](N)Cc1ccccc1)C(=O)N[C@H](CCCCN)C(=O)N1CCC(N)(C(=O)N[C@H](CCCCN)C(N)=O)CC1 [Compound 119, D-Phe-D-Phe(4-Br)-D-Leu-D-Lys-4-aminopiperidine-4-carboxamide-D-Lys-NH2]
- EC50: 0.0615 nM
- Relative Activity %: 987.3%
